Laboratory results from patent US7901893B2, “NPC1L1 (NPC3) and methods of identifying ligands thereof” (Merck Sharp & Dohme Corp., priority 2004, dated 2011).
Entries after “also recorded” stand apart in the source; their conditions may differ. Like-named read-outs stand apart in the source and are kept apart here. Blank lines part the entries; values can stand above or below the molecule they belong to.

How the values were obtained:
cholesterol absorption [1] = conditions: cited from earlier work
mouse NPC1L1 = molecular target: T1, mouse NPC1L1 (Mus musculus, UniProt Q6T3U4); assay: Effect of ezetimibe on cholesterol uptake, mouse NPC1L1 transfected CHO cells; format: cell-based; conditions: EZ (10 μM), mNPC1L1(C7)
T1 construct: expressed in transfected cells; pCDNA3)
Description: (§1) The effect of ezetimibe on the ability of CHO cells stably transfected with mouse or rat NPC1L1 or mouse SR-B1 to take up ^3H-labeled cholesterol was evaluated in pulse-chase experiments. One cDNA clone of mouse NPC1L1 (C7) and three clones of rat NPC1L1 (C7, C17 and C21) were evaluated. The ability of CHO cells stably transfected with mouse SR-B1, mouse NPC1L1 and rat NPC1L1 to take up labeled cholesterol, in the absence of ezetimibe, was also evaluated in the pulse-chase experiments. Data generated in these experiments are set forth, below, in Tables 4 and 5. Additionally, the quantity of total cholesterol taken up by transfected and untransfected CHO cells in the presence of four different unlabeled cholesterol concentrations was also evaluated.
(§2) Starve. The maintenance media (F12 HAMS, 1% Pen/Strep, 10% FCS) was removed and the cells were rinsed with serum-free HAMS media. The serum-free media was then replaced with 1 mL “starve” media (F12 HAMS, Pen/Strep, 5% lipoprotein deficient serum (LPDS). The cells were then starved overnight.
(§3) Pre-Incubation/pre-dose. Media was removed from all plates and replaced with fresh starve media and preincubated for 30 minutes. Half of the wells received media containing ezetimibe (stock soln in EtOH; final conc.=10 μM).
(§4) ^3H-Cholesterol Pulse. The following was added directly to each well: • 0.5 μCi ^3H-cholesterol (˜1.1×10^6 dpm/well) in 50 μl of a mixed bile salt micelle • 4.8 mM sodium taurocholate (2.581 mg/mL) • 0.6 mM sodium oleate (0.183 mg/mL) • 0.25 mM cholesterol (0.1 mg/mL) • Dispersed in “starve” media by ultrasonic vibration • Final media cholesterol concentration=5 μg/mL
(§5) Labeled cholesterol pulse time points were 4, 12, 24 minutes and 4 hours. Triplicate wells were prepared for each treatment.
(§6) Wash. At designated times, media was aspirated and cells were washed once with Hobbs Buffer A (50 mM Tris, 0.9% NaCl, 0.2% bovine serum albumin (BSA), pH 7.4) and once with Hobbs Buffer B (50 mM Tris, 0.9% NaCl, pH 7.4 (no BSA)) at 37° C.
(§7) A. 4, 12, 24 minute time points: Cells were digested overnight with 0.2N NaOH, 2 mL/well, room temperature. One 1.5 mL aliquot was removed from each well, neutralized & counted for radioactivity by scintillation counting.
(§8) B. 4 hour time point: The digested cells were analyzed by thin-layer chromatography to determine the content of cholesterol ester in the cells.
(§9) Extracts were spotted onto TLC plates and run for 30 minutes in 2 ml hexane:isopropanol (3:2) mobile phase for 30 minutes, followed by a second run in 1 ml hexane:isopropanol (3:2) mobile phase for 15 minutes.
(§10) C. Protein determination of cell extracts. Plates containing a sample of the cell extracts were placed on orbital shaker at 120 rpm for indicated times and then extracts are pooled into 12×75 tubes. Plates were dried and NaOH (2 ml/well) added. The protein content of the samples were then determined. Two additional 50 μl aliquots from all wells were assayed for total protein by the Pierce micro BCA method. The quantity of labeled cholesterol observed in the cells was normalized to the quantity of protein in the cells.

mouse SR-B1 = molecular target: T2, mouse SR-B1 (Mus musculus, UniProt Q61009); assay: Effect of ezetimibe on cholesterol uptake, SR-B1 transfected CHO cells; format: cell-based; conditions: EZ (10 μM), SR-BI
T2 construct: expressed in transfected cells
T2 sequence (Q61009 1-509): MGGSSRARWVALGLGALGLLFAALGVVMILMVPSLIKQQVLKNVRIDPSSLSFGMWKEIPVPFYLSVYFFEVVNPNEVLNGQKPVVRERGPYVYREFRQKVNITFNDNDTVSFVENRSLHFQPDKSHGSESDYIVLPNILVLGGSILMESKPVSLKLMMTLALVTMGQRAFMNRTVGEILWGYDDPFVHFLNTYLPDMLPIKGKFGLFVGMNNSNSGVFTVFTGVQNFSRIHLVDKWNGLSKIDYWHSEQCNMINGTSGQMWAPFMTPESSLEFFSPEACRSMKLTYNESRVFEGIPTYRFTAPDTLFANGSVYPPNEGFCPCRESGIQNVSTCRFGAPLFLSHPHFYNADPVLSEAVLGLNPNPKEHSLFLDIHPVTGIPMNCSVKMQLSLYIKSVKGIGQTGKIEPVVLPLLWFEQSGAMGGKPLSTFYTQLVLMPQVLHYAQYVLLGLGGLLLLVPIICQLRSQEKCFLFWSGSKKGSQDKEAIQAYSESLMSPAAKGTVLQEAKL
Description: as §1, §2, §3, §4, §5, §6, §7, §8, §9, §10

[2] = molecular target: T3, CHO cells expressing SR-B1 (Mus musculus, UniProt Q61009); assay: Cholesterol uptake assay (Example 4); format: cell-based; conditions: 10 μM ezetimibe
T3 construct: expressed in transfected cells; host or cells: CHO cells
T3 sequence (Q61009 1-509): T2 sequence (Q61009 1-509)
Description: CHO cells expressing either SR-B1 or three different clones of rat NPC1L1 or one clone of mouse NPC1L1 were starved overnight in cholesterol free media then dosed with [3H]-cholesterol in a mixed synthetic micelle emulsion for 4 min, 8 min, 12 min or 24 m in the absence or presence of 10 µM ezetimibe. The cells were harvested and the lipids were organically extracted. The extracted lipids were spotted on thin-layer chromatography (TLC) plates and resolved within an organic vapor phase. The free cholesterol bands for each assay were isolated and counted in a scintillation counter.

cholesterol absorption [3] = conditions: rat; cited from earlier work
cholesterol absorption [4] = assay: Acute rat cholesterol absorption study; format: in vivo; conditions: rat acute cholesterol absorption model
Description: To determine if in vitro binding activity is predictive of in vivo efficacy, the enantiomer of ezetimibe glucuronide and several close structural analogues of ezetimibe glucuronide that were tested in the rat membrane binding assay were tested in an acute rat cholesterol absorption study as described in Examples 23-26. […] For the other analogs, the same rank order of potency is observed in the in vitro and in vivo assays, further evidence that the observed binding is due to the target of ezetimibe.

Cholesteryl Ester, dpm ± sem (mouse NPC1L1; 4 Hour Pulse): 453 ± 118 dpm
Cholesteryl Ester, dpm/mg protein ± sem (mouse NPC1L1; 4 Hour Pulse): 3057 ± 776 dpm/mg protein
Free Cholesterol, dpm ± sem (mouse NPC1L1; 4 Hour Pulse): 77516 ± 1910 dpm
Free Cholesterol, dpm/mg protein ± sem (mouse NPC1L1; 4 Hour Pulse): 523803 ± 10386 dpm/mg protein
Total Cholesterol, dpm ± sem (mouse NPC1L1; 4 Min Pulse): 4569 ± 222 dpm
Total Cholesterol, dpm/mg protein ± sem (mouse NPC1L1; 4 Min Pulse): 30916 ± 1137 dpm/mg protein
Total Cholesterol, dpm ± sem (mouse NPC1L1; 12 Min Pulse): 6120 ± 755 dpm
Total Cholesterol, dpm/mg protein ± sem (mouse NPC1L1; 12 Min Pulse): 41712 ± 4054 dpm/mg protein
Total Cholesterol, dpm ± sem (mouse NPC1L1; 24 Min Pulse): 9749 ± 482 dpm
Total Cholesterol, dpm/mg protein ± sem (mouse NPC1L1; 24 Min Pulse): 74041 ± 3670 dpm/mg protein
Cholesteryl Ester, dpm ± sem (mouse SR-B1; 4 Hour Pulse): 9305 ± 401 dpm
Cholesteryl Ester, dpm/mg protein ± sem (mouse SR-B1; 4 Hour Pulse): 72782 ± 3181 dpm/mg protein
Free Cholesterol, dpm ± sem (mouse SR-B1; 4 Hour Pulse): 194519 ± 474 dpm
Free Cholesterol, dpm/mg protein ± sem (mouse SR-B1; 4 Hour Pulse): 1521341 ± 4185 dpm/mg protein
Total Cholesterol, dpm ± sem (mouse SR-B1; 4 Min Pulse): 10968 ± 821 dpm
Total Cholesterol, dpm/mg protein ± sem (mouse SR-B1; 4 Min Pulse): 92474 ± 2902 dpm/mg protein
Total Cholesterol, dpm ± sem (mouse SR-B1; 12 Min Pulse): 12349 ± 298 dpm
Total Cholesterol, dpm/mg protein ± sem (mouse SR-B1; 12 Min Pulse): 98956 ± 4447 dpm/mg protein
Total Cholesterol, dpm ± sem (mouse SR-B1; 24 Min Pulse): 23558 ± 1310 dpm
Total Cholesterol, dpm/mg protein ± sem (mouse SR-B1; 24 Min Pulse): 198725 ± 11713 dpm/mg protein
[^3H]-cholesterol uptake [2]: inhibited
SMILES: O=C1[C@H](CC[C@H](O)c2ccc(F)cc2)[C@@H](c2ccc(O)cc2)N1c1ccc(F)cc1 [ezetimibe]
ED50 (cholesterol absorption [1]; monkey): 0.5 µg/kg
potency (ED50) in vivo (cholesterol absorption [1]; rhesus): 0.0005 mpk
potency (ED50) in vivo (cholesterol absorption [3]): 0.03 mpk

SMILES: O=C(O)C1OC(Oc2ccc(C3C(CCC(O)c4ccc(F)cc4)C(=O)N3c3ccc(F)cc3)cc2)C(O)C(O)C1O (single isomer, unassigned) [Compound 4]
activity in vivo (cholesterol absorption [4]): inactive; also recorded: lack of activity
